Read-outs that look alike come from different tables or passages of the source.
Columns and labels:
[1] = molecular target: T1, full-length beta-Catenin (Uniprot ID P35222) (Homo sapiens, UniProt P35222); assay: Fluorescence polarization IC50 (beta-catenin / 5FAM-TCF4 10-53 competition); format: binding
T1 construct: 10 nM full-length beta-Catenin (Uniprot ID P35222)
T1 sequence (P35222 1-781): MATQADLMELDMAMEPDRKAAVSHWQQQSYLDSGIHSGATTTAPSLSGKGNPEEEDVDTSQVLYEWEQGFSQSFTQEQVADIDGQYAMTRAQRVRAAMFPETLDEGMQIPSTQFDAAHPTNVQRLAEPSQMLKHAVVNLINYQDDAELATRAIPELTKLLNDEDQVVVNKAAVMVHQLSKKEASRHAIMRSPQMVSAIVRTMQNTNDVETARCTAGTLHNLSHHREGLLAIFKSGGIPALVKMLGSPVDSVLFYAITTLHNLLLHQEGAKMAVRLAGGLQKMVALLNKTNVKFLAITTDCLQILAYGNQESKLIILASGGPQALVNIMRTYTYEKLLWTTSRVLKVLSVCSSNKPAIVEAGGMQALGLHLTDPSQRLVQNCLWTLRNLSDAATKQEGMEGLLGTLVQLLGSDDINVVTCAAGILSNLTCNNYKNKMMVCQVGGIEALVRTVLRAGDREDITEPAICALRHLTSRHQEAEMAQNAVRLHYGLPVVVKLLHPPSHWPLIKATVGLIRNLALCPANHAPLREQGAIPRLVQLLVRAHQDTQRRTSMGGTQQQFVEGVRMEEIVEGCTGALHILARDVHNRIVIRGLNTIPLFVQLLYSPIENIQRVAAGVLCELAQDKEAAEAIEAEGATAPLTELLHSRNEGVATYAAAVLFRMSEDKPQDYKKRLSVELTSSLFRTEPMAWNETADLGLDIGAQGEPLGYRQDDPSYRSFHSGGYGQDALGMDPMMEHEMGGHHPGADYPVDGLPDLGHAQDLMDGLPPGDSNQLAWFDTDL

CHI Log D procedure = format: physicochemical
[2] = Table E2-1, read-out: beta-Catenin FP IC50
[3] = fluorescence polarization, read-out: beta-Catenin FP IC50
[4] = fluorescence polarization, beta-catenin, read-out: FP EC50

Structure (SMILES)	IC50 [1, 2] [nM]	chromatographic logD (CHI Log D procedure; pH 7.4, CHI Log D)	IC50 [1, 3] [nM]	CHI Log D (CHI Log D procedure; pH 7.4)	also measured
CC(=O)N1CCC[C@]12CC=CCCCC1(CCCC=CCCCCCC[C@@](C)(C(=O)N[C@@H](Cc3ccccc3)C(=O)N[C@@H](Cc3c[nH]c4ccccc34)C(=O)N[C@@H](C)C(N)=O)NC(=O)[C@H](C)NC(=O)[C@H](Cc3ccccc3)NC(=O)[C@H](C)NC(=O)[C@H](C)NC(=O)[C@H](CC(=O)O)NC(=O)[C@H](CC(=O)O)NC1=O)NC(=O)[C@H](C)NC(=O)[C@H](CC(=O)O)NC2=O (stereo partly drawn) [I-286, Ac-PL3-Asp-Ala-B5-Asp-Asp-Ala-Ala-Phe-Ala-S8-Phe-Trp-Ala-NH2]	4480	2.01			
CC[C@@H](C)[C@@H](NC(=O)[C@H](CCC(N)=O)NC(=O)[C@H](Cc1csc2ccccc12)NC(=O)[C@H](Cc1ccccc1)NC(=O)[C@]1(C)CCCCCCC=CCCCC2(CCCC=CC[C@]3(CCCN3C(C)=O)C(=O)N[C@@H](CC(=O)O)C(=O)N[C@@H](CC(C)C)C(=O)N2)C(=O)N[C@@H](CC(=O)O)C(=O)N[C@@H](CCC(=O)O)C(=O)N[C@@H](C)C(=O)N[C@@H](C)C(=O)N[C@@H](Cc2ccccc2)C(=O)N[C@@H](CC(N)=O)C(=O)N1)C(N)=O (stereo partly drawn) [I-734, Ac-PL3-Asp-Leu-B5-Asp-Glu-Ala-Ala-Phe-Asn-S8-Phe-BztA-Gln-dIle-NH2]			370	2.713	IC50 ([1]; read-out: FP EC50): 370 nM
CC[C@H](C)[C@@H]1NC(=O)[C@H](CC(=O)O)NC(=O)[C@]2(CC=CCCCC3(CCCC=CCCCCCC[C@@](C)(C(=O)N[C@@H](Cc4ccccc4)C(=O)N[C@@H](Cc4csc5ccccc45)C(=O)N[C@@H](CCC(N)=O)C(N)=O)NC(=O)[C@H](CCC(N)=O)NC(=O)[C@H](Cc4ccccc4)NC(=O)[C@H](C)NC(=O)[C@H](C)NC(=O)[C@H](CN(CC)CC(=O)O)NC(=O)[C@H](CC(=O)O)NC3=O)NC1=O)CCCN2C(C)=O (stereo partly drawn) [I-608, Ac-PL3-Asp-Ile-B5-Asp-EtGa-Ala-Ala-Phe-Gln-S8-Phe-BztA-Gln-NH2]			211	2.506	IC50 ([1]; read-out: FP EC50): 211 nM; IC50 ([1]; read-out: bCat FP IC50): 211 nM; logD (CHI Log D procedure; pH 7.4): 2.5
CC[C@H](C)[C@@H]1NC(=O)[C@H](CC(=O)O)NC(=O)[C@]2(CC=CCCCC3(CCCC=CCCCCCC[C@@](C)(C(=O)N[C@@H](Cc4cccc(F)c4)C(=O)N[C@@H](Cc4csc5ccccc45)C(=O)N[C@@H](CCC(N)=O)C(N)=O)NC(=O)[C@H](CCC(N)=O)NC(=O)[C@H](Cc4cccs4)NC(=O)[C@H](C)NC(=O)[C@H](C)NC(=O)[C@H](CCC(=O)O)NC(=O)[C@H](CC(=O)O)NC3=O)NC1=O)CCCN2C(C)=O (stereo partly drawn) [I-412, Ac-PL3-Asp-Ile-B5-Asp-Glu-Ala-Ala-2Thi-Gln-S8-3FF-BztA-Gln-NH2]		2.65	92		
CCCC[C@@H]1NC(=O)[C@H](C)NC(=O)[C@H](CCC(=O)O)NC(=O)[C@H](CC(=O)O)NC(=O)C2(CCCC=CCCCCCC[C@@](C)(C(=O)N[C@@H](Cc3ccccc3)C(=O)N[C@@H](Cc3csc4ccccc34)C(=O)N[C@@H](CCC(N)=O)C(N)=O)NC(=O)[C@H](CCC(N)=O)NC(=O)[C@H](Cc3ccccc3)NC1=O)CCCC=CC[C@]1(CCCN1C(C)=O)C(=O)N[C@@H](CC(=O)O)C(=O)N[C@@H]([C@@H](C)CC)C(=O)N2 (stereo partly drawn) [I-666, Ac-PL3-Asp-Ile-B5-Asp-Glu-Ala-nLeu-Phe-Gln-S8-Phe-BztA-Gln-NH2]			626	2.862	IC50 ([1]; read-out: FP EC50): 626 nM
CC(=O)N1CCC[C@]12CC=CCCCC1(CCCC=CCCCCCC[C@@](C)(C(=O)N[C@@H](Cc3ccccc3)C(=O)N[C@@H](Cc3c[nH]c4ccccc34)C(=O)N[C@@H](CCC(N)=O)C(N)=O)NC(=O)[C@H](C(C)C)NC(=O)[C@H](Cc3ccccc3)NC(=O)[C@H](C)NC(=O)[C@H](C)NC(=O)[C@H](Cc3ccccn3)NC(=O)[C@H](CC(=O)O)NC1=O)NC(=O)[C@H](C)NC(=O)[C@H](CC(=O)O)NC2=O (stereo partly drawn) [I-270, Ac-PL3-Asp-Ala-B5-Asp-2PyrA-Ala-Ala-Phe-Val-S8-Phe-Trp-Gln-NH2]	5000	2.5			
CC(=O)N1CCC[C@]12CC=CCCCC1(CCCC=CCCCCCC[C@@](C)(C(=O)N[C@@H](Cc3ccccc3)C(=O)N[C@@H](Cc3csc4ccccc34)C(=O)N[C@@H](CCC(N)=O)C(N)=O)NC(=O)[C@H](CC(N)=O)NC(=O)[C@H](Cc3ccc(F)cc3)NC(=O)[C@H](C)NC(=O)[C@H](C)NC(=O)[C@H](CCC(=O)O)NC(=O)[C@H](CC(=O)O)NC1=O)NC(=O)[C@H](C)NC(=O)[C@H](CC(=O)O)NC2=O (stereo partly drawn) [I-455, Ac-PL3-Asp-Ala-B5-Asp-Glu-Ala-Ala-4FF-Asn-S8-Phe-BztA-Gln-NH2]		2.04	83.5		
CC[C@H](C)[C@@H]1NC(=O)[C@H](CC(=O)O)NC(=O)[C@]2(CC=CCCCC3(CCCC=CCCCCCC[C@@](C)(C(=O)N[C@@H](Cc4ccccc4)C(=O)N[C@@H](Cc4csc5ccccc45)C(=O)N[C@@H](CCC(N)=O)C(N)=O)NC(=O)[C@H](CCC(N)=O)NC(=O)[C@H](Cc4ccccc4)NC(=O)[C@H](CCCCNC(=O)CN=[N+]=[N-])NC(=O)[C@H](C)NC(=O)[C@H](CCC(=O)O)NC(=O)[C@H](CC(=O)O)NC3=O)NC1=O)CCCN2C(C)=O (stereo partly drawn) [I-593, Ac-PL3-Asp-Ile-B5-Asp-Glu-Ala-[AzAc]Lys-Phe-Gln-S8-Phe-BztA-Gln-NH2]					IC50 ([1]; FP EC50 (nM)): 68 nM; chromatographic logD (CHI Log D procedure; pH 7.4): 2.12
CC[C@H](C)[C@@H]1NC(=O)[C@H](CC(=O)O)NC(=O)[C@]2(CC=CCCCC3(CCCC=CCCCCCC[C@@](C)(C(=O)N[C@@H](Cc4ccccc4OC)C(=O)N[C@@H](Cc4csc5ccccc45)C(=O)N[C@@H](CCC(N)=O)C(N)=O)NC(=O)[C@H](CCC(N)=O)NC(=O)[C@H](Cc4ccccc4)NC(=O)[C@H](C)NC(=O)[C@H](C)NC(=O)[C@H](CCC(=O)O)NC(=O)[C@H](CC(=O)O)NC3=O)NC1=O)CCCN2C(C)=O (stereo partly drawn) [I-528, Ac-PL3-Asp-Ile-B5-Asp-Glu-Ala-Ala-Phe-Gln-S8-2OMeF-BztA-Gln-NH2]			63	2.395	IC50 ([1]; read-out: FP EC50): 63 nM
CC(=O)N1CCC[C@]12CC=CCCCC1(CCCC=CCCCCCC[C@@](C)(C(=O)N[C@@H](Cc3ccc(F)cc3)C(=O)N[C@@H](Cc3c[nH]c4ccccc34)C(=O)N[C@@H](CCC(N)=O)C(N)=O)NC(=O)[C@H](C(C)C)NC(=O)[C@H](Cc3ccccc3)NC(=O)[C@H](C)NC(=O)[C@H](C)NC(=O)[C@H](CC(=O)O)NC(=O)[C@H](CC(=O)O)NC1=O)NC(=O)[C@H](C)NC(=O)[C@H](CC(=O)O)NC2=O (stereo partly drawn) [I-261, Ac-PL3-Asp-Ala-B5-Asp-Asp-Ala-Ala-Phe-Val-S8-4FF-Trp-Gln-NH2]	5000	2.01			
CC(=O)N1CCC[C@]12CC=CCCCC1(CCCC=CCCCOC(=O)N3CC[C@@](C(=O)N[C@@H](Cc4ccsc4)C(=O)N[C@@H](Cc4csc5ccccc45)C(=O)N[C@@H](C)C(N)=O)(C3)NC(=O)[C@H](CC(N)=O)NC(=O)[C@H](Cc3ccccc3)NC(=O)[C@H](C)NC(=O)[C@H](C)NC(=O)[C@H](CN(CC(=O)O)CC(F)(F)F)NC(=O)[C@H](CC(=O)O)NC1=O)NC(=O)[C@H](CC(C)(C)C)NC(=O)[C@H](CC(=O)O)NC2=O (stereo partly drawn) [I-945, Ac-PL3-Asp-Npg-B5-Asp-TfeGA-Ala-Ala-Phe-Asn-PyrS2-3Thi-BztA-Ala-NH2]				2.104	IC50 [1, 4]: 1080 nM; IC50 ([1]; read-out: beta-Catenin FP IC50): 1080 nM
CC(=O)N1CCC[C@]12CC=CCCCC1(CCCC=CCCCCCC[C@@](C)(C(=O)N[C@@H](Cc3ccccc3)C(=O)N[C@@H](Cc3c[nH]c4ccccc34)C(=O)N[C@@H](CCC(N)=O)C(N)=O)NC(=O)[C@H](C(C)C)NC(=O)[C@H](Cc3ccccc3)NC(=O)[C@H](C)NC(=O)[C@H](C)NC(=O)[C@H](CCC(=O)O)NC(=O)[C@H](CC(N)=O)NC1=O)NC(=O)[C@H](C)NC(=O)[C@H](CC(=O)O)NC2=O (stereo partly drawn) [I-198, Ac-PL3-Asp-Ala-B5-Asn-Glu-Ala-Ala-Phe-Val-S8-Phe-Trp-Gln-NH2]	5000	2.37			
CC(=O)N1CCC[C@]12CC=CCCCC1(CCCC=CCCCOC(=O)N3CC[C@@](C(=O)N[C@@H](Cc4ccccc4Cl)C(=O)N[C@@H](Cc4csc5ccccc45)C(=O)N[C@@H](CO)C(N)=O)(C3)NC(=O)[C@H](CC(C)C)NC(=O)[C@H](Cc3ccccc3)NC(=O)[C@H](C)NC(=O)[C@H](C)NC(=O)[C@H](CC(=O)O)NC(=O)[C@H](CC(=O)O)NC1=O)NC(=O)[C@H](CC(C)(C)C)NC(=O)[C@H](CC(=O)O)NC2=O (stereo partly drawn) [I-1065, Ac-PL3-Asp-Npg-B5-Asp-Asp-Ala-Ala-Phe-Leu-PyrS2-2C1F-BztA-Ser-NH2]				2.044	IC50 [1, 4]: 520 nM; IC50 ([1]; read-out: beta-Catenin FP IC50): 520 nM
CC(=O)N1CCC[C@]12CC=CCCCC1(CCCC=CCCCCCC[C@@](C)(C(=O)N[C@@H](Cc3cccc(F)c3)C(=O)N[C@@H](Cc3c[nH]c4ccccc34)C(=O)N[C@@H](CCC(N)=O)C(N)=O)NC(=O)[C@H](C(C)C)NC(=O)[C@H](Cc3ccccc3)NC(=O)[C@H](C)NC(=O)[C@H](C)NC(=O)[C@H](CC(=O)O)NC(=O)[C@H](CC(=O)O)NC1=O)NC(=O)[C@H](C)NC(=O)[C@H](CC(=O)O)NC2=O (stereo partly drawn) [I-260, Ac-PL3-Asp-Ala-B5-Asp-Asp-Ala-Ala-Phe-Val-S8-3FF-Trp-Gln-NH2]	5000	2.06			
